The results in this text go back to ChEMBL document CHEMBL1155687, “Anthoptilides A-E, new Briarane diterpenes from the Australian sea pen Anthoptilum cf. kukenthali” (J Nat Prod, 2000).

Broadly, the IC50 is the concentration needed to halve the response being measured. A higher IC50 goes with a need for much substance.

For this assay, the target named is T1, Adenosine receptor A1 (Rattus norvegicus, UniProt P25099).
T1 sequence (P25099 whole entry): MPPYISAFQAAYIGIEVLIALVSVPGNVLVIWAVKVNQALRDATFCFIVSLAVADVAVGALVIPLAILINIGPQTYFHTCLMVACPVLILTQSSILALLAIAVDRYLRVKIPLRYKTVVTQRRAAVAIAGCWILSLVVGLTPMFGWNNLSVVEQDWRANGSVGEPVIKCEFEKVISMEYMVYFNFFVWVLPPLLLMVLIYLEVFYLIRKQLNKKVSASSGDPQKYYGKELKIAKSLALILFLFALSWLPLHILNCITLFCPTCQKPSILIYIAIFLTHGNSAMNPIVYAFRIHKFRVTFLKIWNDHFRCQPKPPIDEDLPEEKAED
The experiment in a line: Displacement of [3H]DPCPX from adenosine A1 receptor in rat brain membrane. It counts as cell membranes.

Compound `CC(=O)O[C@H]1C(=O)C=C(C)[C@@H]2CC3=C(C)C(=O)O[C@H]3/C=C(/C)CC[C@@H](OC(=O)C(C)C)[C@]21C` [ANTHOPTILIDE B] had an IC50 of 45 µM. Regarding `CCC(=O)O[C@@H]1CC/C(C)=C\[C@@H]2OC(=O)C(C)=C2C[C@H]2C(C)=C[C@H](OC(C)=O)[C@H](OC(C)=O)[C@]12C` [ANTHOPTILIDE E], the concentration for half-maximal inhibition (IC50) amounted to 490 µM. Under `CCC(=O)O[C@@H]1CC/C(C)=C\[C@@H]2OC(=O)C(C)=C2C[C@H]2C(C)=CC(=O)[C@H](OC(C)=O)[C@]12C` [ANTHOPTILIDE C] stands 3.1 µM. Under `C/C=C(\C)C(=O)O[C@@H]1CC/C(C)=C\[C@@H]2OC(=O)C(C)=C2C[C@H]2C(C)=CC(=O)[C@H](OC(C)=O)[C@]12C` [ANTHOPTILIDE A] stands 420 µM.

Take `CC(=O)O[C@H]1C(=O)C=C(C)[C@@H]2CC3=C(C)C(=O)O[C@H]3/C=C(/C)CC[C@@H](OC(=O)c3ccccc3)[C@]21C` [ANTHOPTILIDE D]: the IC50 turned out to be 500 µM.
